Like-named read-outs stand apart in the source and are kept apart here. Blank lines part the entries; values can stand above or below the compound they belong to. *1 amine or outer side, *2 acyl side, *3 side chain or, on linkers, in order; H or OH if unused. Where a SMILES comes first, the peptide text is derived from it. Where no end group is shown, it is not given here. [ ]: non-standard residue; d: D form. Tyr(3-Cl) = N[C@@H](Cc1ccc(O)c(Cl)c1)C(=O)O; γGlu = O=C(O)[C@H](CCC(=O)[*:2])N[*:1]; βAsp = O=C(O)[C@H](CC(=O)[*:2])N[*:1]; Cya = N[C@@H](CS(=O)(=O)O)C(=O)O; Cit = NC(=O)NCCC[C@H](N)C(=O)O
Target: HLA-A*02:01 (Homo sapiens, UniProt P04439, D140Y/D185E/D98H/E176V/E277Q/G131W/G231S/I119V/I121R/I166T/I218V/L300P/L318F/N151K/N90K/P208A/P217A/Q86G/Q94H/R138H/R169H/T345S)
Test: HLA-peptide competition binding assay, A*02:01
Settings: for Fold increase: increase of A*02:01 binding of the modified peptide compared to the WT peptide
[1] = post-translationally modified insulin peptide, competition binding assay, a dash indicates IC50 >40,000 nM, read-out: A*02:01 binding (IC50 nM) Modified
[2] = post-translationally modified insulin-derived peptide, radiolabeled ligand competition, purified MHC, two-day incubation, three or more independent experiments, read-out: A*02:01 binding, Modified
[3] = read-out: IC50 nM, target assay A*02:01
[4] = unmodified (WT) insulin peptide, competition binding assay, a dash indicates IC50 >40,000 nM, read-out: A*02:01 binding (IC50 nM) WT
[5] = unmodified (wild type) insulin-derived peptide, radiolabeled ligand competition, purified MHC, two-day incubation, three or more independent experiments, read-out: A*02:01 binding, WT
[6] = read-out: A*02:01 binding (IC50 nM) Modified

IC50 [1]: > 40000 nM
Compound: C[C@H](NC(=O)[C@H](CCC(=O)O)NC(=O)[C@H](CCCNC(N)=O)NC(=O)[C@H](CCCNC(N)=O)NC(=O)[C@@H](NC(=O)[C@H](CCCCN)NC(=O)[C@@H]1CCCN1C(=O)[C@@H](NC(=O)[C@H](Cc1ccc(O)cc1)NC(=O)[C@@H](N)Cc1ccccc1)[C@@H](C)O)[C@@H](C)O)C(=O)O (H-FYTPKT[Cit][Cit]EA-OH; N-terminus and C-terminus assumed)

IC50 [2]: 2120 nM
Compound: CSCC[C@H](NC(=O)[C@H](Cc1c[nH]c2ccccc12)NC(=O)[C@H](CC(C)C)NC(=O)[C@H](C)NC(=O)[C@@H](N)CCSC)C(=O)N[C@@H](CCCNC(N)=O)C(=O)N[C@@H](CC(C)C)C(=O)N[C@@H](CC(C)C)C(=O)N1CCC[C@H]1C(=O)O (H-MALWM[Cit]LLP-OH)

IC50 [3]: 530 nM
Compound: GLPAGAAAQA [reference compound]

IC50 [1]: > 40000 nM
Compound: CC[C@H](C)[C@H](NC(=O)CNC(=O)[C@H](CCCNC(N)=O)NC(=O)[C@H](CCCCN)NC(=O)[C@@H](N)CCC(N)=O)C(=O)N[C@H](C(=O)N[C@@H](CCC(=O)O)C(=O)N[C@@H](CCC(N)=O)C(=O)N[C@@H](CS)C(=O)O)C(C)C (H-QK[Cit]GIVEQC-OH; N-terminus and C-terminus assumed)

Fold increase: 2.02 fold
Compound: CC(C)C[C@H](NC(=O)[C@H](C)NC(=O)[C@H](CCC(=O)O)NC(=O)[C@@H](NC(=O)[C@H](CC(C)C)NC(=O)[C@H](Cc1c[nH]cn1)NC(=O)[C@@H](N)CO)C(C)C)C(=O)N[C@@H](Cc1ccc(O)c(Cl)c1)C(=O)N[C@@H](CC(C)C)C(=O)N[C@H](C(=O)O)C(C)C [SHLVEALJLV] (H-SHLVEAL[Tyr(3-Cl)]LV-OH)

IC50 [3]: 10 nM
Compound: LLLLDVAPL [reference compound]

IC50 [3]: 17200 nM
Compound: VLVEGSTRI [reference compound]

IC50 [1]: > 40000 nM
Compound: C[C@H](NC(=O)[C@H](CCC(=O)O)NC(=O)[C@H](CCCNC(N)=O)NC(=O)[C@H](CCCNC(N)=O)NC(=O)[C@@H](NC(=O)[C@H](CCCCN)NC(=O)[C@@H]1CCCN1C(=O)[C@@H](N)[C@@H](C)O)[C@@H](C)O)C(=O)N[C@@H](CCC(=O)O)C(=O)N[C@@H](CC(=O)O)C(=O)O [TPKTUUEAED] (H-TPKT[Cit][Cit]EAED-OH; N-terminus and C-terminus assumed)

IC50 [4]: > 40000 nM
Compound: RREAEDLQVG

IC50 [5]: 33700 nM
Compound: CGSHLVEALY

IC50 [1]: > 40000 nM
Compound: CC(C)C[C@H](NC(=O)[C@H](Cc1c[nH]cn1)NC(=O)[C@H](CO)NC(=O)CNC(=O)[C@H](CS)NC(=O)[C@H](CC(C)C)NC(=O)[C@H](Cc1c[nH]cn1)NC(=O)CC[C@H](NC(=O)C[C@H](NC(=O)[C@@H](N)C(C)C)C(=O)O)C(=O)O)C(=O)O [VOZHLCGSHL] (H-V[βAsp][γGlu]HLCGSHL-OH; N-terminus and C-terminus assumed)

IC50 [1]: > 40000 nM
Compound: CC[C@H](C)[C@H](NC(=O)CNC(=O)[C@H](CCCNC(N)=O)NC(=O)[C@H](CCCCN)NC(=O)[C@H](CCC(N)=O)NC(=O)[C@H](CC(C)C)NC(=O)[C@@H](N)CO)C(=O)N[C@H](C(=O)N[C@@H](CCC(=O)O)C(=O)O)C(C)C [SLQKUGIVE] (H-SLQK[Cit]GIVE-OH; N-terminus and C-terminus assumed)

IC50 [1]: > 40000 nM
Compound: C[C@H](NC(=O)[C@H](CCC(=O)O)NC(=O)[C@H](CCCNC(N)=O)NC(=O)[C@H](CCCNC(N)=O)NC(=O)[C@@H](NC(=O)[C@H](CCCCN)NC(=O)[C@@H]1CCCN1)[C@@H](C)O)C(=O)N[C@@H](CCC(=O)O)C(=O)N[C@@H](CC(=O)O)C(=O)O [PKTUUEAED] (H-PKT[Cit][Cit]EAED-OH; N-terminus and C-terminus assumed)

IC50 [3]: 2120 nM
Compound: VIVMLTPLV [reference compound]

IC50 (read-out: A*02:01 binding (IC50 nM) WT): 1400 nM
Compound: YLVCGERGFF

IC50 [6]: 35500 nM
Compound: CC(C)C[C@H](NC(=O)[C@H](Cc1ccc(O)cc1)NC(=O)[C@@H](N)CC(C)C)C(=O)N[C@H](C(=O)N[C@@H](CS(=O)(=O)O)C(=O)NCC(=O)N[C@@H](CCC(=O)O)C(=O)N[C@@H](CCCNC(=N)N)C(=O)NCC(=O)N[C@@H](Cc1ccc(O)cc1)C(=O)O)C(C)C [LYLVBGERGY] (H-LYLV[Cya]GERGY-OH)

IC50 [3]: 97 nM
Compound: CC[C@H](C)[C@H](NC(=O)[C@H](CC(N)=O)NC(=O)[C@H](C)NC(=O)[C@H](CC(C)C)NC(=O)[C@@H](N)CCCCN)C(=O)N[C@@H](CCC(N)=O)C(=O)N[C@@H](CS)C(=O)N[C@@H](CC(C)C)C(=O)N[C@@H](CS)C(=O)N[C@@H](CC(C)C)C(=O)O [reference compound] (H-KLANIQCLCL-OH)

IC50 [1]: > 40000 nM
Compound: CC(C)C[C@H](NC(=O)[C@H](CC(=O)O)NC(=O)[C@H](CCC(=O)O)NC(=O)[C@H](C)NC(=O)[C@H](CCC(=O)O)NC(=O)[C@@H](N)CCCNC(N)=O)C(=O)N[C@@H](CCC(N)=O)C(=O)N[C@H](C(=O)NCC(=O)O)C(C)C (H-[Cit]EAEDLQVG-OH; N-terminus and C-terminus assumed)

IC50 [6]: 1860 nM
Compound: CSCC[C@H](N)C(=O)N[C@@H](CCCNC(N)=O)C(=O)N[C@@H](CC(C)C)C(=O)N[C@@H](CC(C)C)C(=O)N1CCC[C@H]1C(=O)N[C@@H](CC(C)C)C(=O)N[C@@H](CC(C)C)C(=O)N[C@@H](C)C(=O)N[C@@H](CC(C)C)C(=O)O [MULLPLLAL] (H-M[Cit]LLPLLAL-OH)

IC50 [4]: > 40000 nM
Compound: LEGSLQKRG

IC50 [6]: 30200 nM
Compound: CC(C)C[C@H](NC(=O)[C@H](CC(=O)O)NC(=O)[C@H](CCC(=O)O)NC(=O)[C@H](C)NC(=O)[C@H](CCC(=O)O)NC(=O)[C@H](CCCNC(N)=O)NC(=O)[C@H](CCCNC(N)=O)NC(=O)[C@@H](N)[C@@H](C)O)C(=O)N[C@@H](CCC(N)=O)C(=O)N[C@H](C(=O)O)C(C)C (H-T[Cit][Cit]EAEDLQV-OH)

IC50 [1]: > 40000 nM
Compound: GERGYYYTPK

IC50 [3]: 4970 nM
Compound: VLNSLASLL [reference compound]

IC50 [6]: 2010 nM
Compound: YLVCGERGYF

IC50 [1]: > 40000 nM
Compound: DEHLCGSHLV

IC50 [1]: > 40000 nM
Compound: ERGYFYTPKT

IC50 [1]: > 40000 nM
Compound: C[C@H](NC(=O)[C@H](CCC(=O)O)NC(=O)[C@H](CCCNC(N)=O)NC(=O)[C@H](CCCNC(N)=O)NC(=O)[C@@H](NC(=O)[C@H](CCCCN)NC(=O)[C@@H]1CCCN1C(=O)[C@@H](NC(=O)[C@@H](N)Cc1ccc(O)cc1)[C@@H](C)O)[C@@H](C)O)C(=O)N[C@@H](CCC(=O)O)C(=O)O (H-YTPKT[Cit][Cit]EAE-OH; N-terminus and C-terminus assumed)

IC50 [3]: 575 nM
Compound: AVAANIVLTV [reference compound]

IC50 [3]: 2780 nM
Compound: CC(C)C[C@H](NC(=O)[C@@H](N)[C@@H](C)O)C(=O)N[C@@H](CO)C(=O)N[C@@H](CO)C(=O)N[C@@H](CCCNC(=N)N)C(=O)N[C@H](C(=O)N[C@@H](CS)C(=O)N[C@@H](CS)C(=O)N[C@@H](CCCNC(=N)N)C(=O)N[C@H](C(=O)O)[C@@H](C)O)C(C)C [reference compound] (H-TLSSRVCCRT-OH)

Fold increase: 2.13 fold
Compound: CC(C)C[C@H](NC(=O)[C@@H](N)Cc1ccc(O)c(Cl)c1)C(=O)N[C@H](C(=O)N[C@@H](CS)C(=O)NCC(=O)N[C@@H](CCC(=O)O)C(=O)N[C@@H](CCCNC(=N)N)C(=O)NCC(=O)N[C@@H](Cc1ccccc1)C(=O)O)C(C)C [JLVCGERGF] (H-[Tyr(3-Cl)]LVCGERGF-OH; N-terminus and C-terminus assumed)

IC50 [1]: > 40000 nM
Compound: CC(C)C[C@H](NC(=O)[C@H](C)NC(=O)[C@H](CCC(=O)O)NC(=O)[C@@H](NC(=O)[C@H](CC(C)C)NC(=O)[C@H](Cc1c[nH]cn1)NC(=O)[C@H](CO)NC(=O)CNC(=O)[C@H](CS(=O)(=O)O)NC(=O)[C@@H](N)CC(C)C)C(C)C)C(=O)O [LBGSHLVEAL] (H-L[Cya]GSHLVEAL-OH; N-terminus and C-terminus assumed)

IC50 [4]: > 40000 nM
IC50 [5]: > 40000 nM
Compound: C[C@@H](O)[C@H](NC(=O)[C@H](CCCCN)NC(=O)[C@@H]1CCCN1C(=O)[C@@H](NC(=O)[C@H](Cc1ccc(O)cc1)NC(=O)[C@H](Cc1ccccc1)NC(=O)[C@H](Cc1ccccc1)NC(=O)CNC(=O)[C@H](CCCNC(=N)N)NC(=O)[C@@H](N)CCC(=O)O)[C@@H](C)O)C(=O)O

IC50 [1]: > 40000 nM
Compound: CC(C)C[C@H](NC(=O)[C@H](C)N)C(=O)N[C@@H](CCC(=O)O)C(=O)NCC(=O)N[C@@H](CO)C(=O)N[C@@H](CC(C)C)C(=O)N[C@@H](CCC(N)=O)C(=O)N[C@@H](CCCCN)C(=O)N[C@@H](CCCNC(N)=O)C(=O)NCC(=O)O (H-ALEGSLQK[Cit]G-OH; N-terminus and C-terminus assumed)

IC50 [3]: 1150 nM
Compound: SMCRFSPLTL [reference compound]

IC50 [2]: 61 nM
Compound: CSCC[C@H](NC(=O)[C@H](Cc1c[nH]c2ccccc12)NC(=O)[C@@H](N)CC(C)C)C(=O)N[C@@H](CCCNC(N)=O)C(=O)N[C@@H](CC(C)C)C(=O)N[C@@H](CC(C)C)C(=O)N1CCC[C@H]1C(=O)N[C@@H](CC(C)C)C(=O)N[C@@H](CC(C)C)C(=O)N[C@@H](C)C(=O)O (H-LWM[Cit]LLPLLA-OH)

IC50 [3]: 9 nM
Compound: VVTGVLVYL [reference compound]

IC50 [3]: 472 nM
Compound: SLEEEIRFL [reference compound]

Compound: LMGDKSENV [reference compound]
IC50: 7370 nM

IC50 [3]: 1230 nM
Compound: GIPPAPRGV [reference compound]

IC50 [4]: > 40000 nM
Compound: HLCGSHLVE

Compound: C[C@@H](O)[C@H](NC(=O)[C@H](Cc1ccc(O)cc1)NC(=O)[C@H](Cc1ccc(O)cc1)NC(=O)[C@H](Cc1ccc(O)cc1)NC(=O)CNC(=O)[C@H](CCCNC(=N)N)NC(=O)[C@H](CCC(=O)O)NC(=O)CNC(=O)[C@@H](N)CS(=O)(=O)O)C(=O)N1CCC[C@H]1C(=O)O [BGERGYYYTP] (H-[Cya]GERGYYYTP-OH; N-terminus and C-terminus assumed)
IC50 (read-out: A*02:01 binding (IC50 nM) Modified, post-translationally modified insulin peptide, competition binding assay, a dash indicates IC50 >40,000 nM): > 40000 nM

IC50 [4]: > 40000 nM
Compound: QHLCGSHLVE

Source: article PMC5863483, “Low HLA binding of diabetes-associated CD8+ T-cell epitopes is increased by post translational modifications” (BMC Immunology, 2018)
